The results in this text go back to patent publication US8629143B2, “Potassium channel modulators” (AbbVie Inc., priority 2009, dated 2014).

Some results are limits rather than exact numbers.

In test [1] the target is T1, KCNQ 2/3 channels (HEK293 cells stably expressing human KCNQ2 and KCNQ3 subunits) (Homo sapiens, UniProt O43525+O43526).
T1 construct: expressed in transfected cells; host or cells: HEK293
Nature of the test: KCNQ2/3 channel activation, thallium flux FLIPR assay with BTC-AM dye. The format is cell-based. As to conditions: for Emax: HEK293, maximum response relative to the response produced by 10 μM retigabine (set at 100%), read-out: Max. %; for EC50: HEK293 cells expressing human KCNQ2 and KCNQ3, thallium flux, FLIPR. The procedure, abridged: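 HEK293 cells stably expressing human KCNQ2/KCNQ3 were loaded with BTC-AM (3 μg/mL, 2 h, RT) and preincubated with compound for 4 min in pH 7.3 gluconate buffer containing 0.1 mM ouabain. Flux was triggered by 6 mM TlNO3/10 mM K2SO4 and read for 3 min; EC50 came from summed responses over basal, with maximum relative to 10 μM retigabine (100%).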

Test [2] has as its system Adult male Sprague-Dawley rats. As to the kind of experiment: Capsaicin-induced secondary mechanical hypersensitivity. The conditions noted are these: rat, about 30 mg/kg i.p., tactile allodynia 30 minutes after dosing, 180 minutes post-capsaicin. The format is in vivo. From the text:
Adult male Sprague-Dawley rats (250-300 g body weight, Charles River Laboratories, Portage, Mich.) were used. Animal handling and experimental protocols were approved by the Institutional Animal Care and Use Committee (IACUC) at Abbott Laboratories. For all surgical procedures, animals were maintained under isoflurane anesthesia (4-5% to induce, 1-3% to maintain), and the incision sites were sterilized using a 10% povidone-iodine solution prior to and after surgeries.
Rats were allowed to acclimate to the study room for 1 h. […] Secondary mechanical hyperalgesia was measured at the heel away from the site of injection at 180 minutes following capsaicin (Joshi et al 2006, Neuroscience 143, 587-596). […]
Tactile (mechanical) allodynia was measured using calibrated von Frey filaments (Stoelting, Wood Dale, Ill.) as described in Chaplan, S. R., F. W. Bach, J. M. Pogrel, J. M. Chung and T. L. Yaksh, 1994, Quantitative assessment of tactile allodynia in the rat paw, J. Neurosci. […] A 50% withdrawal threshold was determined using an up-down procedure (Dixon, W. J., 1980, Efficient analysis of experimental observations, Ann. Rev. Pharmacol. Toxicol., 20, 441). […] Tactile allodynia thresholds were also assessed in several control groups, including naive, sham-operated, and saline infused animals as well as in the contralateral paws of nerve-injured rats. […]
Tactile allodynia was measured as described above.

`O=C(Cc1ccc(Cl)cc1)Nn1nc(-c2ccc(Br)cc2)c2ccccc2c1=O` [Example 3, N-[4-(4-bromophenyl)-1-oxophthalazin-2(1H)-yl]-2-(4-chlorophenyl)acetamide]: in test [1], the Emax is 100% and the EC50 lay in the range of 0.1 to 0.5 µM. For the same compound, in test [2], the “change in paw withdrawal latency versus vehicle” value was “statistically significant change”.
`O=C(CC12CC3CC(CC(C3)C1)C2)Nn1nc(-c2ccccc2)c2ccccc2c1=O` [Example 17, 2-(1-adamantyl)-N-(1-oxo-4-phenylphthalazin-2(1H)-yl)acetamide]: in test [1], the Emax was determined as 205% and the EC50 was under 0.1 µM. Also, in test [2], the “change in paw withdrawal latency versus vehicle” value was “statistically significant change”.

In general, EC50 refers to the midpoint of the concentration-response curve. A higher EC50 goes with a need for much substance.
